Patent US11458146B2, “Compositions and methods for the treatment of myelin related and inflammation related diseases or disorders” (Duke University, priority 2017, dated 2022)
Entries after “also recorded” stand apart in the source; their conditions may differ.

Key:
NF-κB = NF-κB activation in LPS-treated primary splenic monocytes (western blot); assay type: cell-based, mice; conditions: 1 μm 20HC for 24 hours, then 500 ng/mL LPS
Method: FIG. 7 is a Western blot showing the 20HC inhibition of NFκB pathway in primary splenic monocytes. Primary monocytes were exposed to media, 20HC (24 hour)+LPS (500 ng/ml), or LPS alone for 4 hours. 20HC prevented IκB degradation and p65 phosphorylation in LPS treated cells.
Splenocytes where harvested from postnatal day 12 mice. Monocytes were negatively selected using anti-CD3, CD19 magnetic beads. Cells were treated with vehicle control (DMSO) or 1 μm 20HC for 24 hours. After exposure to 20HC, monocytes were treated with 500 ng/mL of lipopolysaccharide (LPS) to activate the TLR4 receptor and activate NF-κB. Compared to control cells, LPS-treated cells degraded I-κB and phosphorylated p65 consistent with NF-κB activation (FIG. 7). I-κB degradation and phosphorylation of p65 was blocked in 20HC-treated monocytes.

naïve CD4+ T cells = experiment: TH17 polarization of naïve CD4+ T cells in vitro (flow cytometry, IL-17 production); assay type: cell-based, rodent; conditions: for cells polarized into the TH17 population: control cells 7.8%; for TH17 polarization (in words, FIG. 8): flow cytometry
Method: Naïve CD4 T cells were isolated from rodent spleen tissue using CD4 magnetic beads. CD4+ lymphocytes were cultured on plates coated with anti-CD3 antibody and anti-CD28 antibodies in the presence of rTGFb, rIL-6, and rIL-23 for 5 days. Four hours prior to flow cytometry analysis, the cells were stimulated with PMA, ionomycin, and Brefeldin A. The cells were then analyzed for IL-17 production (FIG. 8, wherein CD4+ T cell culture in the presence of CD3/CD28-coated beads with IMDM media containing rTGFβ (4 ng/ml), rIL-6 (20 ng/ml), rIL-23 (50 ng/ml), anti-IL-4 Ab, and anti-IFNg Ab with or without GW or HC for 5 days. PMA (50 ng/ml), Ionomycin (500 ng/ml) for […], and Brefeldin A (10 μg/ml) for last 3 h)). 7.8% of the control cells polarized into the TH17 population. The LXR agonist GW3965 prevented TH17 polarization (2.6%).

smoothened (SMO) = smoothened (SMO) (Homo sapiens, UniProt Q99835); conditions: fibroblast cell culture systems; recent studies; cited from earlier work
[1] = tested on: Primary neural stem cells; experiment: in vitro screening method for oligodendrogenesis (CNPase+ cell count); assay type: cell-based, mice; conditions: exposed five days, differentiated 15-18 days; compared to media control
Text: Primary neural stem cells generated from mice were screened for oligodendrogenic potential after treatment with 20HC, 22HC, 24HC, 25HC, and 27HC. Neural stem cells in 8-well chamber slides were exposed to the indicated oxysterol for five days, and then allowed to differentiate for 15-18 days. Following differentiation, cells were fixed and stained for oligodendrocyte markers CNPase and myelin basic protein (MBP) (FIG. 6A). Stained cells were randomly sampled with a 40× objective, using Stereo Investigator software to eliminate bias, while quantifying the number of oligodendrocytes. Each condition was sampled at 10-12 computer selected sites. Images were used to count the number of nucleated CNPase+ cells per high power field (HPF).

[2] = tested on: EAE induced with MOG35-55 peptide in C57BL/6J mice; experiment: experimental allergic encephalitis (EAE) mouse model; assay type: in vivo
Method: EAE was induced using myelin oligodendrocyte glycoprotein (MOG35-55) peptide using standard approaches (see, e.g., Bittner et al., J. Vis. Exp., 86: 51275 (2014); and Miller et al., Curr Protoc Immunol., Unit-15.1 (2007)) in 15 wild-type 8 week old C57BL/6J mice. TH17 T cell populations are pathogenic in the EAE model and have been implicated in multiple sclerosis (MS). Seven mice (3 male, 4 female) proceeded without further intervention while 8 mice (3 female and 5 male) were given daily 125 μL subcutaneous injections of 20HC resuspended in corn oil (10 mg/mL) two days prior to EAE induction and through day 14, just prior to peak clinical severity. Mice were scored daily for the development of ascending paralysis that is indicative of the development of EAE. In vivo treatment of mice with 20HC (50 mg/kg/day) disrupted the development of MS-like symptoms in the EAE model, as shown in FIGS. 9A and 9B.

[3] = tested on: Primary neural stem cells; experiment: oligodendrocyte differentiation from neural stem cells, western blot for CNPase and MBP; assay type: cell-based; conditions: 1 μm and 0.5 μm for five days, then differentiation for 18 days
Method: FIG. 5 is a western blot analysis. Stem cells were treated with oxysterols at doses indicated for 5 days then allowed to differentiate for 18 days. Protein lysates were probed for oligodendrocyte-associated proteins CNPase and myelin basic protein (MBP). Primary neural stem cells were treated with 24-hydroxycholesterol and 25-hydroxycholesterol at 1 μm and 0.5 μm for five days, then allowed to differentiate for 18 days. Protein lysates were probed for oligodendrocyte-associated proteins CNPase and myelin basic protein (MBP).

[4] = tested on: perinatal white matter injury in neonatal mice; experiment: mouse model of perinatal white matter injury (simulated bowel perforation and sepsis); assay type: in vivo
Method: Perinatal bowel perforation is a common complication of premature birth and is strongly linked to myelin injury and cerebral palsy. A mouse model of perinatal white matter injury was developed. The model simulates a perinatal bowel perforation and sepsis by injection of donor cecal contents into the peritoneal cavity of neonatal mice on postnatal day 5. Using this model, the efficacy of 25-hydroxycholesterol in reversing white matter injury was tested. […] Breast-milk associated 25-HC reversed diffuse white matter injury. The cells were stained with oligodendrocyte marker CC1. 40× high power fields (PHF) were imaged.

smoothened (SMO), sequence (Q99835 28-787): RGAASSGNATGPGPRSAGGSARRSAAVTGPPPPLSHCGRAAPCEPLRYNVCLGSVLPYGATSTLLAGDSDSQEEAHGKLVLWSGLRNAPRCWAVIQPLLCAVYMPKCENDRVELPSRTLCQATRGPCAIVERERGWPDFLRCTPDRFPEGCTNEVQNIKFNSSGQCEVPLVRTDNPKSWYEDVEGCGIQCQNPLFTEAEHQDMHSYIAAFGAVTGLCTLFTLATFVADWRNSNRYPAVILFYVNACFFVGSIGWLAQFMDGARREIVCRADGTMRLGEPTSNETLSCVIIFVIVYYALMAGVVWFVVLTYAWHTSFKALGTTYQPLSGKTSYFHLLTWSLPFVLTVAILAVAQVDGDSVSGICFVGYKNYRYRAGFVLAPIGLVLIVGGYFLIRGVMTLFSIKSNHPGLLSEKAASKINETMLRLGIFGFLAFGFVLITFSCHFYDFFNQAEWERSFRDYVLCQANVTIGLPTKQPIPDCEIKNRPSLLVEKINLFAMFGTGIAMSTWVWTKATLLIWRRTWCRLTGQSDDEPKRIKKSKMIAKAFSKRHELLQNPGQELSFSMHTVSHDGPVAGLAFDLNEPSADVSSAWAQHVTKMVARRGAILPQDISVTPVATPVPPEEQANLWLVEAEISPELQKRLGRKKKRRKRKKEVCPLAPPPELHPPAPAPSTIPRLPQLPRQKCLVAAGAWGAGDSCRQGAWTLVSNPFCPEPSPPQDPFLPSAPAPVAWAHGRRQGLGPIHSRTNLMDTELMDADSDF

CC(C)CCC[C@](C)(O)[C@H]1CC[C@H]2[C@@H]3CC=C4C[C@@H](O)CC[C@]4(C)[C@H]3CC[C@@]21C [20HC, 20α-Hydroxycholesterol]
I-κB degradation (NF-κB): blocked; also recorded: prevented | phosphorylation of p65 (NF-κB): blocked; also recorded: prevented | cells polarized into the TH17 population (naïve CD4+ T cells; 5 days culture): 2.2% | TH17 polarization (in words, FIG. 8) (naïve CD4+ T cells): decrease | activation of the SHH pathway via direct binding to smoothened (SMO) (smoothened (SMO)): activate | number of oligodendrocytes (nucleated CNPase+ cells per high power field) [1]: increased number | development of MS-like symptoms ([2]; 50 mg/kg/day subcutaneous, from two days prior to EAE induction through day 14): disrupted | EAE clinical score ([2]; compared to control mice over 46 days, p≤0.05): attenuation

CC(C)CCC(O)[C@@H](C)[C@H]1CC[C@H]2[C@@H]3CC=C4C[C@@H](O)CC[C@]4(C)[C@H]3CC[C@]12C (stereo partly drawn) [22HC, 22-hydroxycholesterol]
number of oligodendrocytes (nucleated CNPase+ cells per high power field) [1]: increased number

CC(C)CC[C@@H](O)[C@@H](C)[C@H]1CC[C@H]2[C@@H]3CC=C4C[C@@H](O)CC[C@]4(C)[C@H]3CC[C@]12C [22α-hydroxycholesterol]
activation of the SHH pathway via direct binding to smoothened (SMO) (smoothened (SMO)): activate

CC(C)C(O)CC[C@@H](C)[C@H]1CC[C@H]2[C@@H]3CC=C4C[C@@H](O)CC[C@]4(C)[C@H]3CC[C@]12C (stereo partly drawn) [24HC, 24-hydroxycholesterol]
cells polarized into the TH17 population (naïve CD4+ T cells; 5 days culture): 2.1% | TH17 polarization (in words, FIG. 8) (naïve CD4+ T cells): decrease | expression of oligodendrocyte-associated proteins CNPase and MBP [3]: induced expression | number of oligodendrocytes (nucleated CNPase+ cells per high power field) [1]: increased number

C[C@H](CCCC(C)(C)O)[C@H]1CC[C@H]2[C@@H]3CC=C4C[C@@H](O)CC[C@]4(C)[C@H]3CC[C@]12C [25HC, 25-hydroxycholesterol]
cells polarized into the TH17 population (naïve CD4+ T cells; higher doses): 2.7% | cells polarized into the TH17 population (naïve CD4+ T cells; low doses): 23.6% | TH17 polarization (in words, FIG. 8) (naïve CD4+ T cells; low doses): promote | myelin integrity (fluoromyelin staining) ([4]; 100 mg/kg/day for five days, compared to septic injured mice that received vehicle control): improved myelin integrity | diffuse white matter injury ([4]; septic injured neonatal mice): reversed | numbers of mature oligodendrocytes (CC1+Olig2+) ([4]; stereology, compared to septic injured mice, p<0.0001): significantly higher | expression of oligodendrocyte-associated proteins CNPase and MBP [3]: induced expression | number of oligodendrocytes (nucleated CNPase+ cells per high power field) [1]: increased number

C[C@@H](CO)CCC[C@@H](C)[C@H]1CC[C@H]2[C@@H]3CC=C4C[C@@H](O)CC[C@]4(C)[C@H]3CC[C@]12C [27HC, 27-hydroxycholesterol]
number of oligodendrocytes (nucleated CNPase+ cells per high power field) [1]: did not increase

O=C(O)Cc1cccc(OCCCN(Cc2cccc(C(F)(F)F)c2Cl)CC(c2ccccc2)c2ccccc2)c1 [GW3965, reference compound]
cells polarized into the TH17 population (naïve CD4+ T cells; 5 days culture): 2.6%
